# Laboratory results taken from US20260284211A1, “DISACCHARIDE LINKER, LINKER-PAYLOAD CONTAINING THE SAME AND GLYCAN CHAIN-REMODELED ANTIBODY-DRUG CONJUGATE, PREPARATION METHOD AND USES THEREOF” (GENEQUANTUM HEALTHCARE (SUZHOU) CO., LTD., priority 2023, published 2026).
# Assays:
# Format in all cases: cell-based
# SK-BR-3 tumor cells = assay: Inhibition of SK-BR-3 tumor cell proliferation (CellTiter-Glo); conditions: Homo sapiens, HER2 high expression cells, 96 hours, cell viability, read-out: IC50, inhibitory effects on SK-BR-3 tumor cells
# Protocol: (§1) Tumor cells in the logarithmic phase of growth were collected, and 5000 cells per well were evenly inoculated in each hole of the 96-well plate. After the cell adhesion overnight, the cells were treated with different concentrations of drugs for 96 hours. Cell viability was measured by CellTiter-Glo® luminescence cell viability detection kit, and the percentage of cell viability was calculated.
# NCI-N87 tumor cells = assay: Inhibition of NCI-N87 tumor cell proliferation (CellTiter-Glo); conditions: Homo sapiens, HER2 high expression cells, 96 hours, cell viability, read-out: IC50, inhibitory effects on NCI-N87 tumor cells
# Protocol: as §1
# MDA-MB-468 tumor cells = assay: Inhibition of MDA-MB-468 tumor cell proliferation (CellTiter-Glo); conditions: Homo sapiens, HER2-negative cells, 96 hours, cell viability, read-out: IC50, inhibitory effects on MDA-MB-468 tumor cells
# Protocol: as §1
compound,measurement,setting,value
C=C1C[C@@H]2CC[C@@]34C[C@H]5O[C@H]6[C@@H](O3)[C@H]3O[C@H](CC[C@@H]3O[C@H]6[C@H]5O4)CC(=O)C[C@@H]3[C@@H](OC)[C@@H](C[C@H](O)CN)O[C@H]3C[C@H]3O[C@@H](CC[C@@H]1O2)C[C@@H](C)C3=C [Eribulin],IC50,SK-BR-3 tumor cells,0.305 nM
same,IC50,NCI-N87 tumor cells,0.614 nM
same,IC50,MDA-MB-468 tumor cells,0.0933 nM
